Measured values taken from patent EP2878677A1, “Activators of protein phosphatase 5” (Deutsches Zentrum für Neurodegenerative Erkrankungen e.V. …, priority 2013, dated 2015).

Test system: human tau-P301L-transfected mice brains
Test: human tau-P301L-transfected mice treated via mini-osmotic pumps, immunohistochemistry of the hippocampus
Type: in vivo, C57BL/6 mice
Method: All protocols for animal experiments described in this study were performed according to the German laws for animal experimentation (Tierschutzgesetz) from 1998. The study was approved by the authorities of the State of Saxony-Anhalt (Landesverwaltungsamt) and performed according to institutional guidelines. Animals were maintained under constant environmental conditions with ambient temperature of 20 ± 2 °C and relative humidity of 50%. They were housed with a 12 hour light-dark cycle and given food and water ad libitum. Adult wild-type C57BL/6 mice (10 weeks old) obtained from Charles River Laboratories (Sulzfeld, Germany) were used for all studies. 4% halothane in a mixture of nitrous oxide/oxygen (ratio 70:30) was used for the induction of anesthesia and 1 to 1.5% halothane for the maintenance of anesthesia. Halothane was applied via a nose cone. Throughout all surgical procedures, the animal's body temperature was kept at 37°C using a thermostatically controlled heating blanket. Intracerebral injection of viral particles into the hippocampus of the right brain hemisphere of anesthetized mice was performed stereotactically at coordinates 2.6 mm posterior to bregma, lateral 1.0 mm and ventral 2.0 mm. 2 µl of high titer viral suspension were injected with a fixed syringe (Hamilton Company, Reno, NV, USA). After injection at a rate of 0.2 µl/min, the cannula was left in place for further 30 sec before slow withdrawal. After surgery, the wound was sutured.
Mini-osmotic pumps (Model 2006, Alzet, Palo Alto, CA, USA) were implanted intraperitoneal (ip) through a midline incision immediately after P301L transfection. During implantation, animals remained under halothane anesthesia (details above). The pumps (internal volume: 245.6 µl) were loaded with one of the following substances: P5SA-2, P5SA-3, P5SA-4, P5SA-5 or corresponding vehicle solution (DMSO/polyethylene glycol 400 (50:50 w/w) without drug. P5SA (final concentration 1 mg/kg/day) or vehicle infusion (ip) started immediately after transplantation with a continuous flow rate of 0.15 µl/h and was maintained for 6 weeks.
6 weeks after P301L transfection, mice were anesthetized by ip injection of 4% chloral hydrate in PBS, transcardially perfused with ice-cold PBS and fixed with 4% paraformaldehyde in 0.1 M PBS. Immediately after fixation, animals were decapitated. The brains were removed and post-fixed in the same fixative overnight. Fixed brains were placed in a mouse brain matrix (Activational Systems Inc., Warren, USA) and transected into defined coronal brain slices (thickness 1 mm) along the anterior-posterior axis. After incubation in 30% sucrose containing PBS for cryoprotection, 20 µm-thick frontal sections, comprising the hippocampal formation, were cut using a cryostat (Microm International GmbH, Walldorf, Germany). For immunohistochemical staining, sections were washed in 0.1 M PBS. Free-floating sections were permeabilized with 0.2% Triton X-100 in PBS containing 10% normal horse serum for 30 min. After washing with PBS, unspecific antibody binding was blocked by 10% normal horse serum for 30 min, followed by a further wash in 0.1 M PBS. Then, sections were incubated with primary antibodies. For immunofluorescence staining, primary antibodies directed against total tau (human plus endogenous mice tau, K9JA) and MAP2 (microtubule-associated protein 2), respectively, were applied simultaneously. Alternatively, the primary antibodies AT8 (human phospho-tau, AT8 (Ser202/Thr205) phosphorylation site) and the human tau-specific primary antibody tau-13 were used individually. After overnight incubation at 4°C, sections were rinsed with 0.1 M PBS. Sections exposed to the primary antibody combination K9JA/MAP2 were incubated with the complementary secondary antibodies goat anti-rabbit IgG Alexa Fluor 488 and goat anti-mouse IgG Alexa Fluor 594. AT8 and tau-13 were visualized with goat anti-mouse IgG Alexa Fluor 594. […]

[1] = 1 mg/kg/day, continuous ip infusion for 6 weeks

SMILES | phosphorylation of human tau-P301L at its AT8 epitope (Ser202/Thr205) [1] | tau-P301L-dependent pattern of neuronal degeneration in the hippocampal formation [1] | numbers of AT8-positive perikarya of CA3 pyramidal neurons per hippocampal slice (1 mg/kg/day ip for 6 weeks, mean ± SEM, vehicle 7.0 ± 2.0, P< 0.0001) | tau-P301L-dependent localization of total tau signals in the perikarya of CA1 and CA3 pyramidal neurons [1]
O=c1cc2nc(-c3ccc(F)cc3)nc(SCc3ccc(Br)cc3)n2[nH]1 [P5SA-4] | diminished | not observed |  | 
CNC(=O)c1c(NC(=O)COCC(=O)Nc2sc3c(c2C(=O)NC)CCC3)sc2c1CCC2 [P5SA-5] | remarkably reduced | decreased | 2.2 ± 1.4 | remained unaffected
CN1CCc2c(sc(-n3cccc3)c2CNC(=O)NC23CC4CC(CC(C4)C2)C3)C1 [P5SA-3] | diminished | not observed |  | 
COc1ccc(-c2nc(Cc3ccc(Cl)cc3)no2)cc1OC [P5SA-2] | diminished | not observed |  | 
